The source of these data is patent US12685733B2, “Indole molecules and use thereof in the inhibition of DNA polymerases” (BioVentures, LLC, priority 2019, dated 2026).

One assay concerns the target T1, hpol κ (Homo sapiens, UniProt Q9UBT6).
T1 sequence (Q9UBT6 19-526): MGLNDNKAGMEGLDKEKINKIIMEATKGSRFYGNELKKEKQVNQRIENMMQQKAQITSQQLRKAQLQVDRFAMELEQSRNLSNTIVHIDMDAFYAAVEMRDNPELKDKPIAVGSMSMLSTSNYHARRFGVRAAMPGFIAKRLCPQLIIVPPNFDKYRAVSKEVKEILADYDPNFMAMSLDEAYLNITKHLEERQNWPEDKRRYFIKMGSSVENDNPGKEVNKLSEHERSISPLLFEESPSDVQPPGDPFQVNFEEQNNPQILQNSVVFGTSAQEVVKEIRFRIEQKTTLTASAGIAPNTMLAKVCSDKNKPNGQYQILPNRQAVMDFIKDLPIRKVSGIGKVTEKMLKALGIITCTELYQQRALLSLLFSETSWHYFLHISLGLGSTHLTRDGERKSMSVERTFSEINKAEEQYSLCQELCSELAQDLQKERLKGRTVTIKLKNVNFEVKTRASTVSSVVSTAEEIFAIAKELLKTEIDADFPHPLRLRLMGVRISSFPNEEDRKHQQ
The experiment in a line: Fluorescence-based (TAMRA/BHQ strand displacement) DNA polymerase activity assay. The following applies: for activity at 40 µM: read-out: % Activity Mean (hpol κ activity).

For another assay, the target named is T2, recombinant hpol κ (Homo sapiens, UniProt Q9UBT6).
T2 sequence (Q9UBT6 1-870): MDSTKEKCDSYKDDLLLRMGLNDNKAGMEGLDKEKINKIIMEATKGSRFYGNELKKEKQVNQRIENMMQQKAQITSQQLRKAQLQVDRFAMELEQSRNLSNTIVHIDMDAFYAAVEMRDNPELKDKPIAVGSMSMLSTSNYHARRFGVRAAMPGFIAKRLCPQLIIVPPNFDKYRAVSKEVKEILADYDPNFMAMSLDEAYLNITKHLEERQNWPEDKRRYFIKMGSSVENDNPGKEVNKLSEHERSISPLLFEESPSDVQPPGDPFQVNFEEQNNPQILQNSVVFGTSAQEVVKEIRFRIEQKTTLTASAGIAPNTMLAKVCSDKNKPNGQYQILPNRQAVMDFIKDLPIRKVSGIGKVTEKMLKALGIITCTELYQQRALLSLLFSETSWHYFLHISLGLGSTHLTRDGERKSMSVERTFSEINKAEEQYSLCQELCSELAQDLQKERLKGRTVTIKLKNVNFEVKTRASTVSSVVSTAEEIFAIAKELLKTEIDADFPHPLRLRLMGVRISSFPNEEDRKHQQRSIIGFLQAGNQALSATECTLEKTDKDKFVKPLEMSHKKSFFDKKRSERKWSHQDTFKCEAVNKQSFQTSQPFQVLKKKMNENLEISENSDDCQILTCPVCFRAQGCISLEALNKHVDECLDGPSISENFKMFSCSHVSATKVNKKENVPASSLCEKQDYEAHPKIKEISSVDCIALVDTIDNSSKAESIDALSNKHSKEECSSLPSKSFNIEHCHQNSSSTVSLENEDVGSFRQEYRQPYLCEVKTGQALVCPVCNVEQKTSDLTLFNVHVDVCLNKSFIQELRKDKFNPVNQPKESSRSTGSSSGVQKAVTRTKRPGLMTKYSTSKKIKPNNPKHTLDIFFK
Conditions: earlier screen; cited from earlier work.

In assay [1] the test system is hpol κ-proficient HAP-1 cells. The experiment in a line: Clonogenic survival assay. It is filed as cell-based, human. The following applies: 250 μM TMZ alone. The method, then:
(§1) HAP-1 and hpol κ^KO cells were purchased from Horizons Discovery Group LLC (Cambridge, UK). The company generated the Hap1 cells using CRISPR-Cas9 technology and the elimination of kappa expression was confirmed by Sanger sequence genome editing. We further confirmed the elimination of hpol κ protein expression by Western blotting (data not shown). Hap1 cells were cultured in Iscove's modified Dulbecco's medium (IMDM; Invitrogen, CA, USA) supplemented with 10% (v/v) fetal bovine serum (FBS; Atlas Biologicals, CO, USA) and 1% (v/v) antibiotic/antimycotic solution (Sigma-Aldrich, MO, USA).T98G cells were purchased from ATCC (American Type Culture Collection, VA, USA). T98G cells were cultured in MEM (Minimum Essential Medium) (Invitrogen, CA, USA) supplemented with 10% (v/v) FBS (Fetal Bovine Serum, Atlas Biologicals, CO, USA) and antibiotic/antimycotic solution (1%, v/v) (Sigma-Aldrich, MO, USA). NT2 cells were kindly provided by Dr. Michael Borrelli (University of Arkansas for Medical Sciences, AR, USA). NT2 cells were cultured in DMEM/F12 (Dulbecco's Modified Eagle Medium) supplemented with 10% (v/v) FCS (Fetal Calf Serum) and antibiotic/antimycotic solution (1%) (Sigma-Aldrich, MO, USA).
(§2) To measure the clonogenic ability, cells were plated (500 cells per well) in 6-well dishes. In the case of HAP-1 cells, cells were treated the following day after plating, with temozolomide (TMZ) (0, 1, 5, 50, 125 and 250 μM) alone or in combination with UAMS-48 (0.1 and 0.5 μM) for 1 hour. In the case of T98G and NT2 cells, treatment was done on the following day of plating, with increasing concentrations of TMZ alone or in combination with UAMS-48 (50 nM) for 3 hrs. T98G and NT2 cells were treated with increasing concentrations of UAMS-48 for 3 hrs. After treatment, cells were cultured in fresh IMDM supplemented with 10% FBS for 10 days. The colonies were gently washed with 1×PBS, fixed with 3.7% (v/v) formaldehyde for 20 mins at RT and stained with crystal violet solution (Sigma-Aldrich, MO, USA) for 30 mins at RT.
(§3) The fixed crystal-violet stained colonies in each 6-well plate were examined under an EVOS XL Core imaging system (Thermo Fisher Scientific) under bright-field, and the colonies were inspected manually. […] Color images of each 6-well plate were captured and opened for processing using the Fiji version of the freely available software ImageJ. Setting the appropriate threshold for counting colonies for each cell type, corresponding to the respective radii calculated previously, the colonies were counted using the Colony Area plugin of ImageJ. Manual counting was performed on a few wells picked randomly, and the colony count so obtained was tallied with the number obtained using ImageJ, to ensure they matched reasonably. All experiments were performed in triplicate, and the colony number for each well was expressed as the mean (±standard deviation). The results were plotted to generate a dose response curve for TMZ treatment using the software Graphpad Prism, where the mean number of colonies was plotted along the Y-axis, and the TMZ concentration along the X-axis. Bar charts comparing the mean number of colonies as a function of the various conditions were also plotted for both cell types. Combination index values were calculated using the Chou-Talalay method (Chou 2010).

In assay [2] the test system is hpol κ-deficient HAP-1 cells. The experiment in a line: Clonogenic survival assay. The following applies: 250 μM TMZ. The class given is cell-based, human. Here is the method:
as §1, §2, §3

Consider `O=C1NC(=S)NC(=O)C1=Cc1cn(Cc2ccc(Br)cc2)c2ccc(COCCN3CCOCC3)cc12` [IBA-22], for which the activity at 40 µM on hpol κ stood at 91.1%. The same measure, in the same setting: to `COc1ccc2c(c1)c(C=C1C(=O)NC(=S)NC1=O)c(C)n2Cc1cccc2ccccc12` [IBA-23] belongs 91%; to `N#Cc1ccc(Cn2cc(C=C3C(=O)NC(=O)NC3=O)c3cccnc32)cc1` [IBA-24], 88.8%; to `O=C1NC(=S)NC(=O)C1=Cc1cn(C(=O)c2ccc3ccccc3c2)c2ccc(Cl)cc12` [IBA-25], 87.6%. On to `Cc1c(C=C2C(=O)NC(=S)NC2=O)c2ccccc2n1C(=O)c1cccc2ccccc12` [IBA-26], for which, on hpol κ, the activity at 40 µM came to 86.4%.

Take `O=C1NC(=S)NC(=O)C1=Cc1cn(C(=O)c2cccc3ccccc23)c2ccc(Cl)cc12` [IBA-27]: the activity at 40 µM at hpol κ stood at 85.8%. On the same count and under the same terms, to `O=C1NC(=S)NC(=O)C1=Cc1cn(Cc2ccc3ccccc3c2)c2ncc(Cl)cc12` [IBA-28] belongs 84.4%; to `O=C1NC(=S)NC(=O)C1=Cc1cn(C(=O)c2cccc3ccccc23)c2ccccc12` [IBA-29], 83.3%. As to `O=C1NC(=S)NC(=O)C1=Cc1cn(C(=O)c2ccc3ccccc3c2)c2ccccc12` [IBA-30], the activity at 40 µM on hpol κ was determined as 81.4%. On to `O=C1NC(=O)C(=Cc2cn(Cc3ccc4ccccc4c3)c3ccc(Cl)cc23)C(=O)N1` [IBA-31], for which, at hpol κ, the activity at 40 µM was found to be 67.6%. As to `O=C1NC(=S)NC(=O)C1=Cc1cn(Cc2ccc3ccccc3c2)c2ccc(Cl)cc12` [IBA-32], the activity at 40 µM at hpol κ was 56.5%. Also, on hpol κ (steady-state kinetics with varying inhibitor concentration), the “turnover number (kcat), hpol κ-catalyzed dTTP insertion” value was “it was the kcat and not the KdNTP that was altered”.

On to `O=C1NC(=O)C(=Cc2cn(Cc3ccc4ccccc4c3)c3ccccc23)C(=O)N1` [IBA-33], for which the activity at 40 µM at hpol κ is 17.9%.

Regarding `O=C1NC(=S)NC(=O)C1=Cc1cn(Cc2cccc3ccccc23)c2ccc(Br)cc12` [IBA-34], the activity at 40 µM at hpol κ is 3.7%. Take `CC(C)c1ccc2c(c1)c(SC(C)(C)C)c(CC(C)(C)C(=O)O)n2Cc1ccc(Cl)cc1` [MK-886]: on recombinant hpol κ, the “IC50 for inhibition of recombinant hpol κ” value is recorded as “tens of micromolar”. For the compound `Cn1nnc2c(C(N)=O)ncn2c1=O` [TMZ, temozolomide, reference compound], the “colonies formed relative to control” value in assay [1] is reported as ~ 75%. Moreover, in assay [2], the “colonies formed relative to untreated cells” value is recorded as “less than 50%”. `CCOc1nc2cccc(C(=O)OC(C)OC(=O)OC3CCCCC3)c2n1Cc1ccc(-c2ccccc2-c2nn[nH]n2)cc1` (stereo not drawn) [candesartan, candesartan cilexetil]: at recombinant hpol κ, the “IC50 for inhibition of recombinant hpol κ” value is “tens of micromolar”.
